Results reported in patent publication US20020009508A1, “Echinacea extract as anti-irritant and anti-aging booster in cosmetic compositions” (priority 2000, published 2002).

Tested on: IL-1a-induced PGE2 in neonatal human dermal fibroblasts
Assay: Inhibition of IL-1a-induced PGE2 production in fibroblasts (PGE2 enzyme immunoassay)
Type: cell-based
Procedure: Neonatal human dermal fibroblasts (passage 5-9) were seeded at a density of 7500 cells per well in 96-well tissue culture treated plates (Corning-Costar, Corning, N.Y.). The medium used was Dulbecco's Modified Eagle's Medium (DMEM), high-glucose (Gibco/Life Technologies, Gaithersburg, Md.) supplemented with 2 mM L-glutamine, 10% fetal bovine serum, and antibiotic and anti mycotic solutions (all also Life Technologies). After 48 hours, each well was rinsed twice with 200 μl serum-free DMEM and the cells dosed with 200 μl in DMEM+L-glutamine containing IL-1α at 1 ng/ml +/− active. […]
Enzyme immunoassay was performed using a commercial PGE2 kit (Amersham, Buckinghamshire, England). […] The assay is based on the competition between unlabelled PGE2 (standard or sample) and a fixed quantity of peroxidase labelled PGE2 for a limited amount of the well-bound PGE2-specific antibody. […] The Dynatech MR7000 microplate spectrophotometer (Dynatech, Chantilly, Va.) was used to quantitate color in the wells by reading absorbance at 450 nm. […]
The antiinflammatory potential of the test compounds is assessed by the ability of the compound to inhibit IL-1a-induced PGE2 and is expressed as the ratio of PGE2 produced by the cells treated with the test compound +IL-1a to PGE2 produced by the cells treated with IL-1a alone. […] Statistical significance was determined using the student's t-test.

## Chicoric acid
Table 1b, concentration 0.001%
  Ratio of PGE2 with echinacea + IL-1a/IL-1a: 0.02
At 0.001%
  Effectiveness in the PGE2 test (in words): effective
